How the values were obtained:
Assay type in all cases: cell-based, human
A549 cells [1] = assay: Genome-wide siRNA screen: residual proliferation (WST-1) of siRNA-transfected cells upon CDDP; conditions: 50 μM CDDP for 24 hours
Procedure: High-throughput operations were carried out by means of a Microlab STAR automated workstation (Hamilton, Reno, USA) placed under a class II safety cabinet. In all screening rounds, each siRNA was tested in triplicates that were distributed to three different plates. Prior to cell seeding, transfection complexes were individually prepared in a V-bottomed 96-well deep well plate. In brief, each siRNA (as retrieved from the Human Whole Genome siRNA Set Version 1.0) was dissolved in a total volume of 122.5 μL serum-free phenol-red free DMEM/F12 medium (final concentration=10 nM, conditions for 7 wells). Similarly, an appropriate amount of HiPerFect® transfection reagent (Qiagen) was diluted in serum-free phenol-red free DMEM/F12 medium (0.25 μL per well). […] After additional 24 h, the 3 plates that were not subjected to cell death induction were assessed for both plasma membrane breakdown and residual cell proliferation, while the 3 plates that were treated with cell death-inducing stimuli were monitored for residual proliferation only (see next section). […]
In the second round of screen (4 siRNAs×1,000 transcripts=4,000 siRNAs), the effects of individual siRNAs were analyzed and scored as described above. […]

CDDP-GG DNA adducts = assay: Immunofluorescence microscopy for the detection of CDDP-GG DNA adducts; conditions: A549 cells, 25 μM CDDP alone or combined with PN
Procedure: Immunofluorescence staining and measurement of specific DNA platination products was performed essentially as previously described {Dzagnidze, 2007; Liedert, 2006}, with minor modifications. Briefly, cells were spotted onto ImmunoSelect adhesion slides (Squarix GmbH, Marl, Germany), fixed overnight in ice-cold methanol, and subjected to proteolytic digestion with 60 μg/mL pepsin (100 μL per spot, 10 min, 37° C., in a moist chamber) and 40 μg/mL proteinase K (100 μL per spot, 10 min, 37° C., in a moist chamber). Upon blockage of unspecific binding sites with 5% (w/v) non-fat powdered milk in PBS, slides were incubated with a rat primary antibody that specifically recognizes CDDP-GG DNA adducts (RC-18) (at 37° C. for 2 h or at 4° C. overnight). […] Images were acquired on an Axioplan fluorescence microscope (Carl Zeiss GmbH, Göttingen, Germany) coupled to a C4880 CCD camera (Hamamatsu Photonics, Herrsching, Germany). For the detection of CDDP-GG DNA adducts by immunofluorescence microscopy, fluorescence signals were measured by quantitative digital image analysis with the ACAS 6.0 Cytometry Analysis System (ACAS II, Asbach, Germany). The levels of adducts in each sample were calculated as arbitrary fluorescence units (AFUs), upon normalization of integrated antibody-derived fluorescence from 200 nuclei/sample to the corresponding DNA content. […]

A549 cells [2] = assay: Quantification of intracellular PN (LC-MS/MS); conditions: 24 or 48 h
Procedure: A549 cells were cultured in absence or the presence of 5 mM PN for 24 or 48 h, harvested, washed once in cold PBS and pelleted at 800 G for 10 min. Supernatants were discarded and pellets were dissolved in 500 μL of deionized H2O by vortexing for 1 min followed by sonication for 10 min. Thereafter, lysates were centrifuged at 5,796 G for 10 min and 60 μL of the resulting supernatant were mixed with an equal volume of trichloroacetic acid (TCA). Upon additional centrifugation (5,796 G, 10 min), 50 μL of sample were injected onto the chromatographic column and PN was measured by liquid chromatography with tandem mass spectrometry (LC-MS/MS), as previously described {Johansson, 2010; Midttun, 2009}.

SMILES	cells killed (A549 cells [1])	CDDP-DNA adducts (CDDP-GG DNA adducts)	intracellular PN concentration upon acute addition (A549 cells [2])
N.N.[Cl][Pt][Cl] [CDDP, cis-diammineplatinum(II) dichloride]	~45%	–	–
Cc1ncc(CO)c(CO)c1O [PN, pyridoxine]	–	significantly increased CDDP-DNA adducts	increased the intracellular PN concentration

— patent US20130281313A1, “PROGNOSTIC AND/OR PREDICTIVE BIOMARKERS AND BIOLOGICAL APPLICATIONS THEREOF” (INSTITUT GUSTAVE ROUSSY, priority 2010, published 2013)
